Patent US20130190251A1, “METHOD FOR PREDICTING THE RESPONSIVENESS TO CHEMOTHERAPY” (priority 2010, published 2013)
“Also recorded” adds a separate entry of the source.

How the values were obtained:
Assay type in all cases: cell-based
[1] = system: HL-60 cells sensitive to daunorubicin (HL60S); assay: Apoptosis by DNA fragmentation after propidium iodide labeling, HL60S; settings: 15-hour incubation, gliotoxin 1 mg/ml or p21 peptide 50 mM
Method: (§1) FIG. 7. The p21 peptide restores apoptosis in daunorubicin-resistant HL60 cells. HL60S and HL60R were incubated overnight with the p21 peptide (50 mM) or with gliotoxin (1 mg/ml). After a 15-hour incubation, the effect of the p21 peptide on the percentage of apoptotic HL60 cells was measured by mitochondrial depolarization after DiOC6 labeling and by DNA fragmentation after propidium iodide labeling. Data are means±SEM of 5 independent experiments.
(§2) Apoptosis in HL-60 cells sensitive to daunorubicin (HL60S) was compared to apoptosis in HL-60 cells resistant to daunorubicin (HL60R). Apoptosis was induced either by gliotoxin that triggers apoptosis by targeting the mitochondria or the p21 peptide. The p21 peptide corresponds to residues 141 to 160 of p21 fused to the cell penetrating peptide RYIRS. HL60S and HL60R were incubated overnight with the p21 peptide (50 mM) or with gliotoxin (1 mg/ml). After a 15-hour incubation, the effect of the p21 peptide on the percentage of apoptotic HL60 cells was measured by mitochondrial depolarization after DiOC6 labeling and by DNA fragmentation after propidium iodide labeling (FIG. 7).

[2] = system: HL-60 cells resistant to daunorubicin (HL60R); assay: Apoptosis by mitochondrial depolarization after DiOC6 labeling, HL60R; settings: 15-hour incubation, gliotoxin 1 mg/ml or p21 peptide 50 mM
Method: as §1, §2

[3] = system: HL-60 cells resistant to daunorubicin (HL60R); assay: Apoptosis by DNA fragmentation after propidium iodide labeling, HL60R; settings: 15-hour incubation, gliotoxin 1 mg/ml or p21 peptide 50 mM
Method: as §1, §2

[4] = system: K562-doxorubicin resistant cells; assay: Analysis of drug resistance by DIOC2 efflux, K562 resistant; settings: cisplatin 2.5 μg/ml, DIOC2 50 ng/ml, 30 min at 37° C., FACS
Method: (§3) FIG. 6. Acquisition of drug resistance of myelocytic leukemia cell line K562 by doxorubicin. Analysis of inhibition by cisplatin of DIOC2 incorporation in myelocytic leukemia K562 cell line. Drug resistance is mediated by ABC transporters such as P-glycoprotein (P-gp) K562 cells were incubated with DIOC2 with or without cisplatin, and the fluorescence of DIOC2 incorporated in cells was assessed by FACS. In K562-doxorubicin sensitive cells, high fluorescence of DIOC2 is observed because of the lack of efflux. No effect of cisplatin is observed consistent with an absence of ABC transporter-mediated drug resistance.
(§4) The assay is based on the efflux of fluorescent P-gp substrate DiOC2 (3-ethyl-2-[3-(3-ethyl-2(3H)-benzoxazolylidene)-1-propenyl]benzoxazolium iodide) in doxorubicin-resistant cells, which can be inhibited by cisplatin. This efflux is absent in doxorubicin-sensitive cells resulting in an accumulation of DIOC2. DIOC2 fluorescence is measured by flow cytometry. Briefly, K562 at 1×10^6 cellules/ml were treated by cisplatin (2.5 μg/ml) in the presence of DIOC2 (50 ng/ml) for 30 min at 37° C. The cells are analyzed by flow cytometry.

[5] = system: K562-doxorubicin sensitive cells; assay: Analysis of drug resistance by DIOC2 efflux, K562 sensitive; settings: cisplatin 2.5 μg/ml, DIOC2 50 ng/ml, 30 min at 37° C., FACS
Method: as §3, §4

[6] = system: HL-60 cells sensitive to daunorubicin (HL60S); assay: Apoptosis by mitochondrial depolarization after DiOC6 labeling, HL60S; settings: 15-hour incubation, gliotoxin 1 mg/ml or p21 peptide 50 mM
Method: as §1, §2

Molecule	DNA fragmentation in HL60S (percentage of apoptotic HL60 cells) [1]	DNA fragmentation in HL60S (percentage of apoptotic HL60 cells) ([1]; listed as gliotoxin)	mitochondria depolarization in HL60R (percentage of apoptotic HL60 cells) [2]	DNA fragmentation in HL60R (percentage of apoptotic HL60 cells) [3]	effect on DIOC2 efflux (fluorescence of DIOC2 incorporated in cells) [4]	effect on fluorescence of DIOC2 incorporated in cells [5]	mitochondria depolarization in HL60S (percentage of apoptotic HL60 cells) [6]
CN1C(=O)[C@]23CC4=CC=C[C@H](O)[C@H]4N2C(=O)[C@@]1(CO)SS3 [Gliotoxin, gliotoxin]	triggers mitochondria depolarization and DNA fragmentation in HL60S	induces apoptosis in HL60S	no effect on HL60R	no effect on HL60R	–	–	–
N.N.[Cl][Pt][Cl] [cisplatin]	–	–	–	–	efflux which was reversed	No effect	–
p21 peptide: residues 141 to 160 of p21 fused to the cell penetrating peptide RYIRS (KRRQTSMTDFYHSKRRLIFSRYIRS; Synthetic peptide based on residues 141 to 160 of p21 fused to the RYIRS tag)	–	–	low but significant mitochondria depolarization	induces DNA fragmentation in HL60R more potently than in HL60S; also recorded: inducing DNA fragmentation in HL60R more potently than in HL60S	–	–	more modest effect
